Experimental data: patent US20240368239A1, “Novel bispecific protein and use thereof” (SL METAGEN, priority 2020, published 2024)

System: B6 normal mice
Assay: Fluorescence spectrometry tissue distribution of Cy5.5-labelled substances
Type: in vivo
Settings: 24 hours after administration, Cy5.5 label
Procedure: Next, the present inventors performed an experiment in B6 normal mice in order to observe the distribution in each tissue and organ according to the administration of a bispecific fusion protein according to an embodiment of the present invention. Cy5.5 was used as a fluorophore for tracking the distribution after administration of each substance. Buffer exchange was performed for each substance to be administered, MG12-1, MG12-4, and GLP-1Fc homodimer with boric acid buffer (pH 8.5), and with reference to the protocol of the Cy5.5 labeling kit (GE, #PA15605) were allowed to react with an appropriate amount of Cy5.5 overnight under refrigeration conditions. Unreacted Cy5.5 in the reaction-completed substance was removed through the PBS substitution process, and whether Cy5.5 was reacted well was confirmed through the final SDS-PAGE. Each administered substance was diluted with 10% DMSO/PBS to have the same fluorescence intensity using an ELISA plate reader capable of measuring fluorescence intensity before being administered.

Cy5.5 [reference compound]
0: Average fluorescence intensity, Brain | Average fluorescence intensity, Large intestine | Average fluorescence intensity, Small intestine
